Here are results for one compound from US11058772B2, “(Bacterio)chlorophyll photosensitizers for treatment of eye diseases and disorders” (Yeda Research and Development Co. Ltd., priority 2011, dated 2021).

Structures are written as SMILES.

In series [1] the test system is de-epithelialized rabbit cornea. The experiment in a line: Depth of penetration into the rabbit cornea, ex vivo (fluorescence microscopy of sagittal slices). It is filed as in vitro ADME. Here is the method: Eyes of rabbits were enucleated and deepithelialised mechanically post mortem. The eyes were exposed to Bchl-S solution using an eye cap for 5, 10, and 30 minutes and to Bchl-D solution for 10 and 30 min, in darkness. Controls: untreated eyes, and one eye treated with dextran-500 only for 30 min in darkness. Following this pretreatment, the corneas were briefly rinsed with saline and the central 8-mm buttons were trephined, removed, wrapped in aluminum foil and frozen on dry ice until further use. Central serial corneal sagittal slices (12 μm) were cut with a cryomicrotome, mounted on a microscope glass slide and stored frozen in −70° C. until use. For measurement of fluorescence, the individual slices were placed on the microscope base and a photographic record was immediately taken. Fluorescence intensity of Bchl-S or Bchl-D treated corneas from 3 serial cryo sections was recorded at 760 nm, upon excitation at 740 nm, using a fluorescence microscope (BX61 Olympus, Japan) equipped with CCD camera (Cascade 512B, Roper Sci., USA) and a long pass filter of above 760 nm. The digital data was analyzed, using ImageJ software (NIH, USA).
The penetration depth of the photosensitizer determines the extent of cornea's tissue exposure to the photodynamic effect. In particular, the deeper the penetration, the higher is the probability for endothelial impairment. To resolve the penetration depth of test compounds following different times of incubation, the digitized fluorescence of dissected corneal discs was monitored using fluorescence microscopy as described in Materials and Methods.
The penetration depth of WST11 into the de-epithelialized cornea, following various incubation times, was performed in the darkness in the absence or presence of dextran, using saline or dextran solutions of WST11 (WST11-S or WST11-D solutions, respectively) in 20 eyes of euthanized rabbits. Sagittal frozen sections mounted on glass slides were subjected to fluorescence microscopy. The distribution of WST11 across the cornea was recorded photographically by fluorescence microscopy (excitation/emission 740/760 nm). The controls were 4 untreated eyes and 1 eye treated only with dextran-T 500 for 30 minutes.

The test system is the same in series [2]. The experiment in a line: Photobleaching of photosensitizer in ex-vivo treated corneas. To be noted: 20 min pretreatment. Here is the method: Corneas of eyes from euthanized rabbits were de-epithelialized. Usually, 5 rabbits were tested, and 8 of the 10 eyes were pretreated for 20 minutes with a bacteriochlorophyll derivative in saline (Bchl-S), using an eye cap. The solution excess was carefully tipped off with filter paper. The eyes were irradiated for the specified time duration: 0, 10, 30, and 60 min (two corneas per time frame). Additional two eyes were used as control. The corneas were removed, and the central buttons of 8-mm diameter were punched out with a round trephine. Absorption spectra were recorded using V-570 spectrophotometer (Jasco, Japan).
It was previously described by the present inventors that generation of oxygen radicals upon illumination of certain bacteriochlorophyll derivatives such as WST11 in the absence of serum albumin is accompanied by bleaching of the NIR transition and absorption increase at ˜645 nm due to the photochemical generation of a chlorophyll-like molecules (Ashur et al. 2009). Such changes are therefore important markers for the photochemical activity of such bacteriochlorophyll derivatives in situ. […] Results obtained for 10 corneas of 5 euthanized rabbits treated with WST11 in saline are presented herein.
Eight de-epithelialized eyes were retreated with WST11-S for 20 min using an eye cap, and the remaining 2 eyes served as control. […] In parallel, the absorption increased at 645 nm (upward arrow), typical to the corresponding chlorin derivative formation by the photochemical interaction of WST11 with molecular oxygen (Ashur et al., 2009)

Another series concerns rabbit cornea. The experiment in a line: Clinical course after in vivo cornea treatment (edema, epithelial healing, haze). The conditions noted are these: for epithelial haze / time to healing of corneal epithelial defect: dipotassium salt. Here is the method: Twelve to twenty five weeks old rabbits (2.5-3 Kg weight) were used. They were anesthetized by intramuscular (i.m.) injection of 35 mg/kg ketamine (Rhone Merieux, Lyon, France) and 5 mg/kg xylazine (Vitamed, Binyamina, Israel). Usually, 16 rabbits were assigned for bacteriochlorophyll treatment. After de-epithelialization, one eye of each rabbit was treated topically with a test compound in saline for 10, 20 and 30 minutes using an eye cap (12 mm in diameter), followed by NIR illumination for 10, 20 or 30 minutes (755 nm, 10 mW/cm^2). The other eye served as untreated control. To prevent exposure of the limbal stem cells, the illuminated area was restricted by an aluminum foil mask with an 8 mm diameter central opening. To determine the role of dextran, 12 rabbits were divided into 4 treatment groups of 3 rabbits each: group 1, the Bchl-S group, was treated with a saline solution of a bacteriochlorophyll derivative; group 2, the Bchl-D group, treated with a bacteriochlorophyll-dextran solution. Both groups were incubated with the test compound for 20-min, followed by NIR illumination (755 nm, 10 mW/cm^2) for 30 minutes. Group 3, the RF group, was treated with riboflavin without dextran, and group 4, the RF-D group was treated with RF-dextran solution (RF-D). Both groups were incubated with RF or RF-D solutions for 30-minute, followed by UVA illumination (370 nm, 3 mW/cm^2) for 30 minutes. An ophthalmic ointment containing dexamethasone 0.1%, neomycin and polymixin B (Maxitrol®, Alcon, Belgium) was applied on the treated eyes once daily for two weeks. Four weeks after the treatment the rabbits were sacrificed, and the corneoscleral rings were removed and placed on paraffin hemisphere buttons of matching shape to assure accurate sectioning without stretching the tissue. Corneal strips, 4±0.2 mm in width, were cut from the epithelial side, as described above in the ex-vivo section. The corneal strips were transferred to the biomechanical tester without delay.
To determine the role of dextran, the photochemical treatment with a formulation of WST11 2.5 mg/ml containing 20% dextran T-500 (WST11-D) was examined. Six rabbits were examined: 3 rabbits were pretreated for 20 min with WST11-S solution and 3 with WST11-D solution, followed by NIR illumination for 30 minutes. Additional 4 rabbits were treated with RF (n=2) or RF-D (n=2) for 30 minutes, followed by 30-min UVA irradiation (370 nm, 3 mW/cm^2).

Where [3] appears, read: in vivo after photosensitizer + illumination.
Where [4] appears, read: in vivo after photosensitizer + illumination, listed as WST11-S.

Turning to `CCC1C2=Cc3c(C)c(C(=O)NCCS(=O)(=O)[O-])c4[n]3[Pd][n]3c(c(C)c(C(C)=O)c3=CC(=N2)C1C)=CC1=NC(=C4CC(=O)OC)C(CCC(=O)[O-])C1C.[K+].[K+]` (stereo not shown) [WST11, Palladium 3^1-oxo-15-methoxycarbonylmethyl-rhodobacteriochlorin 13^1-(2-sulfoethyl)amide dipotassium salt], the “stromal thickness after exposure” value in series [1] (30 min exposure to saline solution, from 360-380 μm) was 600-730 μm. For the same compound, the “penetration depth into corneal stroma” value in series [1] (in saline, no dextran, 10 min exposure, dipotassium salt) is given as “half of the corneal stroma”; in series [1] (in saline, no dextran, 10 min exposure, listed as WST11-S, dipotassium salt), “entire outer half of the stroma”; in series [1] (in saline, no dextran, 30 min exposure, dipotassium salt) it was “entire stroma depth”; in series [1] (in saline, no dextran, 30 min exposure, listed as WST11-S, dipotassium salt), “all the way to Descemet's membrane”; in series [1] (with dextran-500, 10 min incubation), “outer ⅓ of the corneal stroma”; in series [1] (with dextran-500, 30 min incubation), 50%. Moreover, the “755-nm absorption of corneal WST11 diminished by” value in series [2] (NIR illumination 10 min) is recorded as 30%; in series [2] (NIR illumination 30 min) it was 50%; in series [2] (NIR illumination 60 min), 75%. For the same compound, the “time to clearing of corneal edema” value in the series with rabbit cornea (setting [3]) was found to be 5 days. Moreover, the figures for the epithelial haze result in the series with rabbit cornea (setting [3]) and with rabbit cornea (setting [4]) were “without haze development” and “some corneas demonstrating epithelial haze”, respectively. The entries for the “time to healing of corneal epithelial defect” value in the series with rabbit cornea (setting [3]) and in the series on rabbit cornea (setting [4]) were 7 to 9 days and 10 to 14 days, respectively. Besides, in the series with rabbit cornea (in vivo, saline solution/NIR), the “corneal edema after treatment, duration” value is “one week”.
